Common to all, as to format: biochemical
In assay [1] the target is T1, SEX4 (Arabidopsis thaliana, UniProt Q9FEB5).
T1 construct: gift from Dr. Gentry's group, University of Kentucky College of Medicine
T1 sequence (Q9FEB5 90-379 limits assumed): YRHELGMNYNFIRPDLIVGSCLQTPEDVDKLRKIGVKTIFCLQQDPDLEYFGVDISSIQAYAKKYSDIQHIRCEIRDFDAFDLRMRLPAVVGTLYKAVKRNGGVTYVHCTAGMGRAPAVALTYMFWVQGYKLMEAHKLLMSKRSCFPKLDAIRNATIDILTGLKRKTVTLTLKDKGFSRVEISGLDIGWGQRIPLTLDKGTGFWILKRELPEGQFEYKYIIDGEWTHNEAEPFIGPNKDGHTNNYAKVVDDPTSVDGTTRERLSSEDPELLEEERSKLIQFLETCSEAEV
In words: Phosphatase assay against amylopectin, SEX4. Conditions: for Inhibition model, amylopectin assay, SEX4: determined by steady-state kinetic measurements; for Selectivity between SEX4 and LSF2: comparison of IC50 values for SEX4 and LSF2. As for the experimental part:
(§1) The Arabidopsis thaliana SEX4 lacking the first 89 amino acids (Δ89-SEX4) and LSF2 proteins were kindly provided by Dr. Gentry’s group at the University of Kentucky College of Medicine (Lexington, KY, USA). para-nitrophenyl phosphate disodium salt hexahydrate (pNPP), Malachite green oxalate salt, ammonium molybdate tetrahydrate, and amylopectin from potato starch were purchased from Sigma-Aldrich. Absorbance was measured on a Beckman Coulter (Brea, CA, USA) DU 700 Series UV/Vis Spectrophotometer.
(§2) The phosphatase activity of SEX4 or LSF2 toward amylopectin in the absence or presence of an inhibitor was measured in a reaction mixture with 2 μg SEX4 or LSF2 at 37 °C in 20 μL volume. The reaction mixture contained 100 mM sodium acetate, 50 mM bis-Tris, 50 mM Tris (pH 6.5), 10 mM DTT, and 45 μg amylopectin with or without an inhibitor. […] The release of free inorganic phosphate was determined by measuring the absorbance at 620 nm and the K2HPO4 standard curve.
(§3) The steady-state kinetic parameters were determined by varying substrate concentrations (pNPP 0.5–50 mM; amylopectin 5–45 μg) with or without an inhibitor. The data were fitted by nonlinear regression to the Michaelis–Menten equation using GraphPad PRISM 9.0 software to derive KM and kcat values. […] Inhibition constants (Ki) and inhibition types were determined by varying substrate concentrations in the absence of an inhibitor and in the presence of an inhibitor at the IC50 concentration.
(§4) The process of finding an inhibitor proceeded as follows (Figure 1). […] Then, reproduction experiments were performed with these compounds to select candidate substances. […] In order to assess any difference in selectivity between SEX4 and LSF2 for the selected candidates, the IC50 values of LSF2 were obtained through the pNPP and amylopectin assays and compared with those of SEX4.
(§5) The IC50 values were calculated directly from regression curves using GraphPad PRISM software. The IC50 graph was fitted to the Logistic Equation.

In assay [2] the target is T2, LSF2 (Arabidopsis thaliana, UniProt Q9SRK5).
T2 construct: gift from Dr. Gentry's group, University of Kentucky College of Medicine
In words: Phosphatase assay against pNPP, LSF2. Here is the method:
as §1
(§6) The phosphatase activity of SEX4 or LSF2 against pNPP in the presence or absence of an inhibitor was measured in this assay. The reaction (20 μL of total volume) of A. thaliana SEX4 or LSF2 was performed in the reaction mixture containing 1~2 μg SEX4 or LSF2, 1X assay buffer pH 5.5 (20 mM sodium acetate, 10 mM bis-Tris, 10 mM Tris, pH with HCl), 5 mM Dithiothreitol (DTT), and 50 mM pNPP (Sigma-Aldrich, Wien, Austria). It was incubated at 37 °C for 10 min with or without an inhibitor. The reaction was terminated by adding 80 μL of 0.25 N NaOH, and absorbance was measured at 410 nm.
as §3, §4

Assay [3] deals with T2, LSF2. In words: Phosphatase assay against amylopectin, LSF2. As for the experimental part: as §1, §2, §3, §4
The target of assay [4] is T1, SEX4. In words: Phosphatase assay against pNPP, SEX4. Conditions: for Inhibition model, pNPP assay, SEX4: determined by steady-state kinetic measurements. As for the experimental part: as §1, §6, §3, §4, §5
Setting [5] is: 45 μg amylopectin, inhibitor 0–0.2 mM, average ± standard error of three measurements, read-out: IC50, amylopectin assay, SEX4.
Where [6] appears, read: amylopectin 5–45 μg, inhibitor at IC50 concentration, average ± standard error of three measurements, read-out: Ki, amylopectin assay, SEX4.
[7] abbreviates: average ± standard error of three measurements, read-out: IC50, pNPP assay, LSF2.
[8] abbreviates: not determined with the maximum concentration of candidate compounds, read-out: IC50, amylopectin assay, LSF2.
[9] abbreviates: 50 mM pNPP, inhibitor 0–0.2 mM, average ± standard error of three measurements, read-out: IC50, pNPP assay, SEX4.
Where [10] appears, read: pNPP 0.5–50 mM, inhibitor at IC50 concentration, average ± standard error of three measurements, read-out: Ki, pNPP assay, SEX4.

What is called IC50 is the midpoint of a concentration-inhibition curve. What is called Ki is the dissociation constant of the complex between target and ligand, obtained from inhibition or displacement.

T2 sequence (Q9SRK5 62-282): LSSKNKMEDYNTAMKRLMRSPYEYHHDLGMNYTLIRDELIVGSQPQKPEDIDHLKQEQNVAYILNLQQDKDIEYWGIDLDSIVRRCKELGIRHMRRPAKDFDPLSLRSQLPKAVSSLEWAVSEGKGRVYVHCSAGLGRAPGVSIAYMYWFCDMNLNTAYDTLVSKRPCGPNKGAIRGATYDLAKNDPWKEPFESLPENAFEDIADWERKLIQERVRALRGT

Take `CC(C)=CCc1c(-c2ccc(O)cc2O)oc2c(C3C=C(C)CC(C(=O)c4ccc(O)cc4O)C3c3ccc(O)cc3O)c(O)cc(O)c2c1=O` (stereo not shown) [Compound H08, Moracenin B]: the half-maximal inhibitory concentration (IC50) on SEX4 [1] (setting [5]) is 16.49 ± 0.051 µM; on LSF2 [2] (setting [7]) it was 22.92 ± 0.025 µM; at LSF2 [3] (setting [8]), greater than 50 µM; at SEX4 [4] (setting [9]) it was 18.69 ± 0.026 µM. Also, the Ki on SEX4 [1] (setting [6]) worked out at 31.12 ± 0.027 µM; at SEX4 [4] (setting [10]) it was 20.84 ± 0.023 µM. On SEX4 [1], the “Inhibition model, amylopectin assay, SEX4” value was “Uncompetitive”. On SEX4 [4], the “Inhibition model, pNPP assay, SEX4” value is “Uncompetitive”.
Turning to `Cc1c(O)nc2[nH]c(=O)sc2c1C` [Compound H03, Thiazolo[4,5-b]pyridin-2(3H)-one, 5-hydroxy-6,7-dimethyl], the results for the half-inhibitory concentration (IC50) at SEX4 [1] (setting [5]), at LSF2 [2] (setting [7]) and at SEX4 [4] (setting [9]) were 13.05 ± 0.024 µM, 49.58 ± 0.047 µM and 39.58 ± 0.016 µM, respectively. Further, the values for the Ki on SEX4 [1] (setting [6]) and on SEX4 [4] (setting [10]) were 29.84 ± 0.025 µM and 42.34 ± 0.037 µM, respectively. The “Inhibition model, amylopectin assay, SEX4” value at SEX4 [1] is “Competitive”. Also, the “Inhibition model, pNPP assay, SEX4” value at SEX4 [4] is recorded as “Uncompetitive”.
`CCCc1c(O)nc2[nH]c(=O)sc2c1C` [Compound D04, Thiazolo[4,5-b]pyridin-2(3H)-one, 5-hydroxy-7-methyl-6-propyl]: the IC50 on SEX4 [1] (setting [5]) was found to be 57.33 ± 0.34 µM; on LSF2 [2] (setting [7]), 44.82 ± 0.022 µM; at SEX4 [4] (setting [9]), 21.6 ± 0.008 µM. For the same molecule, the Ki was determined as 28.31 ± 0.014 µM at SEX4 [1] (setting [6]) and 25.41 ± 0.012 µM at SEX4 [4] (setting [10]). For the same molecule, at SEX4 [1], the “Inhibition model, amylopectin assay, SEX4” value is reported as “Competitive”. For the same molecule, the “Inhibition model, pNPP assay, SEX4” value on SEX4 [4] is reported as “Uncompetitive”.
Regarding `O=C(O)c1cc(O)c2c(c1)[C@@H]([C@@H]1c3cc(C(=O)O)cc(O)c3C(=O)c3c(OC4OC(CO)C(O)C(O)C4O)cccc31)c1cccc(OC3OC(CO)C(O)C(O)C3O)c1C2=O` (stereo partly shown) [Compound G11, Sennoside], the half-inhibitory concentration (IC50) was 9.72 ± 0.008 µM on SEX4 [1] (setting [5]), 23.03 ± 0.029 µM on LSF2 [2] (setting [7]), greater than 50 µM at LSF2 [3] (setting [8]) and 25.75 ± 0.017 µM at SEX4 [4] (setting [9]). For the same molecule, the results for the inhibition constant Ki on SEX4 [1] (setting [6]) and on SEX4 [4] (setting [10]) were 7.81 ± 0.005 µM and 33.87 ± 0.019 µM, respectively. The “Selectivity between SEX4 and LSF2” value at SEX4 [1] is on record as “selective for SEX4”. For the same molecule, at SEX4 [1], the “Inhibition model, amylopectin assay, SEX4” value was “Competitive”. Moreover, at SEX4 [4], the “Inhibition model, pNPP assay, SEX4” value is “Uncompetitive”.
As to `O=C(OCC1OC(OC(=O)c2cc(O)c(O)c(O)c2)C(OC(=O)c2cc(O)c(O)c(O)c2)C(OC(=O)c2cc(O)c(O)c(O)c2)C1OC(=O)c1cc(O)c(O)c(O)c1)c1cc(O)c(O)c(O)c1` [Compound G07, Penta-O-gallolyl-β-D-glucose], the IC50 on SEX4 [1] (read-out: IC50, amylopectin assay, SEX4) was 38.61 ± 0.022 µM; at LSF2 [2] (setting [7]) it was 13.39 ± 0.036 µM; on LSF2 [3] (setting [8]), greater than 50 µM; on SEX4 [4] (read-out: IC50, pNPP assay, SEX4) it was 30.91 ± 0.021 µM. Further, the inhibition constant Ki on SEX4 [1] (read-out: Ki, amylopectin assay, SEX4) came out at 46.4 ± 0.032 µM; at SEX4 [4] (read-out: Ki, pNPP assay, SEX4), 37.31 ± 0.026 µM.
As to `CCCCCC/C=C\CCCCCCCc1cccc(O)c1C(=O)O` [Compound F05, Ginkgolic acid], the IC50 on SEX4 [1] (setting [5]) is 21.1 ± 0.021 µM; at LSF2 [2] (setting [7]), 21.26 ± 0.008 µM; on LSF2 [3] (setting [8]) it was greater than 50 µM; against SEX4 [4] it was 5.18 ± 0.014 µM. For the same molecule, the Ki on SEX4 [1] (setting [6]) was 20.81 ± 0.021 µM; on SEX4 [4] (setting [10]), 6.87 ± 0.007 µM. The “Inhibition model, amylopectin assay, SEX4” value at SEX4 [1] was “Uncompetitive”. Moreover, the “IC50 for SEX4 compared with that of LSF2, pNPP assay” value on SEX4 [4] (SEX4 vs LSF2) is recorded as “approximately four times lower”. Also, the “Inhibition model, pNPP assay, SEX4” value on SEX4 [4] is given as “Uncompetitive”.
On to `O=C1C=CC(=O)c2c(O)ccc(O)c21` [Compound F09, Naphthazarin], for which, on SEX4 [1], the half-inhibitory concentration (IC50) was 7.49 ± 0.016 µM; the inhibition constant Ki came out at 16.42 ± 0.012 µM; the “Selectivity between SEX4 and LSF2” value is given as “selective for SEX4”; the “Inhibition model, amylopectin assay, SEX4” value was “Uncompetitive”. At LSF2 [2], the IC50 came out at 23.97 ± 0.028 µM. This molecule had an IC50 on LSF2 [3] greater than 50 µM. Besides, on SEX4 [4], half-maximal inhibition (IC50) was put at 15.83 ± 0.018 µM; the inhibition constant Ki amounted to 39.81 ± 0.026 µM; the “Inhibition model, pNPP assay, SEX4” value is “Mixed-model”.

Source of the values: PMC11678766, “Identification of Novel Inhibitors of Starch Excess 4 (SEX4)” (Life, 2024).
